Measurements published in paper PMC12274840 (The Journal of Biological Chemistry, 2025).
≈ marks a conversion by molar mass, not a printed value. Read-outs that look alike come from different tables or passages of the source.

Legend:
[1] = test system: E. coli KA797 cells carrying NmcA position 105 library; assay type: cell-based
[2] = test system: E. coli KA797 cells carrying pUK21 vector without the β-lactamase gene; assay: microbe, parasite or virus in culture; assay type: cell-based; settings: Escherichia coli; antibiotic alone; pUK21 without β-lactamase gene; read-out: MIC
[3] = test system: E. coli KA797 cells carrying pUK21 with CTX-M-14 WT (Tat); assay: microbe, parasite or virus in culture; assay type: cell-based; settings: Escherichia coli, antibiotic alone
[4] = test system: E. coli KA797 cells carrying BlaC position 105 library; assay type: cell-based, Escherichia coli; settings: for Fi AVG (average fitness): relative to WT Ile; for Fi AVG (average fitness) / Fi MEM AVG: average of replicates; for Fi MEM 1: replicate 1; for Fi MEM 2: replicate 2; for Fi MEM 3: replicate 3

C[C@@H](O)[C@H]1C(=O)N2C(C(=O)O)=C(S[C@@H]3CN[C@H](C(=O)N(C)C)C3)[C@H](C)[C@H]12 [meropenem]
Fi (relative fitness), Replicate 1 ([1]; NmcA AA 105 Ala): -0.381 | Fi AVG (average fitness of replicates) ([1]; NmcA AA 105 Ala): -0.261 | Significance of average fitness ([1]; NmcA AA 105 Ala): - | Fi (relative fitness), Replicate 1 ([1]; NmcA AA 105 Arg): 0.092 | Fi AVG (average fitness of replicates) ([1]; NmcA AA 105 Arg): 0.048 | Fi (relative fitness), Replicate 1 ([1]; NmcA AA 105 Asn): 0.031 | Fi AVG (average fitness of replicates) ([1]; NmcA AA 105 Asn): 0.087 | Fi (relative fitness), Replicate 1 ([1]; NmcA AA 105 Asp): -0.205 | Fi AVG (average fitness of replicates) ([1]; NmcA AA 105 Asp): -0.182 | Significance of average fitness ([1]; NmcA AA 105 Asp): - | Fi (relative fitness), Replicate 1 ([1]; NmcA AA 105 Cys): -0.468 | Fi AVG (average fitness of replicates) ([1]; NmcA AA 105 Cys): -0.282 | Significance of average fitness ([1]; NmcA AA 105 Cys): - | Fi (relative fitness), Replicate 1 ([1]; NmcA AA 105 Gln): 0.037 | Fi AVG (average fitness of replicates) ([1]; NmcA AA 105 Gln): 0.055 | Fi (relative fitness), Replicate 1 ([1]; NmcA AA 105 Glu): -0.016 | Fi AVG (average fitness of replicates) ([1]; NmcA AA 105 Glu): -0.061 | Fi (relative fitness), Replicate 1 ([1]; NmcA AA 105 Gly): 0.015 | Fi AVG (average fitness of replicates) ([1]; NmcA AA 105 Gly): -0.027 | Fi (relative fitness), Replicate 1 ([1]; NmcA AA 105 His): 0.000 | Fi AVG (average fitness of replicates) ([1]; NmcA AA 105 His): 0.000 | Fi AVG (average fitness of replicates) ([1]; NmcA AA 105 Ile): 0.105 | Significance of average fitness ([1]; NmcA AA 105 Ile): + | Fi (relative fitness), Replicate 1 ([1]; NmcA AA 105 Leu): -0.100 | Fi AVG (average fitness of replicates) ([1]; NmcA AA 105 Leu): -0.100 | Significance of average fitness ([1]; NmcA AA 105 Leu): - | Fi (relative fitness), Replicate 1 ([1]; NmcA AA 105 Lys): -0.081 | Fi AVG (average fitness of replicates) ([1]; NmcA AA 105 Lys): -0.032 | Fi (relative fitness), Replicate 1 ([1]; NmcA AA 105 Met): -0.00142 | Fi AVG (average fitness of replicates) ([1]; NmcA AA 105 Met): 0.024 | Fi (relative fitness), Replicate 1 ([1]; NmcA AA 105 Phe): 0.169 | Fi AVG (average fitness of replicates) ([1]; NmcA AA 105 Phe): 0.140 | Significance of average fitness ([1]; NmcA AA 105 Phe): + | Fi (relative fitness), Replicate 1 ([1]; NmcA AA 105 Pro): -0.067 | Fi AVG (average fitness of replicates) ([1]; NmcA AA 105 Pro): -0.060 | Significance of average fitness ([1]; NmcA AA 105 Pro): - | Fi (relative fitness), Replicate 1 ([1]; NmcA AA 105 Ser): -0.066 | Fi AVG (average fitness of replicates) ([1]; NmcA AA 105 Ser): -0.071 | Significance of average fitness ([1]; NmcA AA 105 Ser): - | Fi (relative fitness), Replicate 1 ([1]; NmcA AA 105 Thr): -0.118 | Fi AVG (average fitness of replicates) ([1]; NmcA AA 105 Thr): -0.120 | Significance of average fitness ([1]; NmcA AA 105 Thr): - | Fi (relative fitness), Replicate 1 ([1]; NmcA AA 105 Trp): 0.105 | Fi AVG (average fitness of replicates) ([1]; NmcA AA 105 Trp): 0.078 | Fi (relative fitness), Replicate 1 ([1]; NmcA AA 105 Tyr): -0.154 | Fi AVG (average fitness of replicates) ([1]; NmcA AA 105 Tyr): -0.163 | Significance of average fitness ([1]; NmcA AA 105 Tyr): - | Fi (relative fitness), Replicate 1 ([1]; NmcA AA 105 Val): -0.043 | Fi AVG (average fitness of replicates) ([1]; NmcA AA 105 Val): -0.035 | WT abs Fi 1 (absolute fitness) ([1]; NmcA WT, replicate 1): 0.00454 | WT abs Fi 2 (absolute fitness) ([1]; NmcA WT, replicate 2): 0.092 | WT abs Fi 3 (absolute fitness) ([1]; NmcA WT, replicate 3): 0.017 | MIC [2]: 0.05 µg/mL (≈ 0.13 µM) | MIC [3]: 0.1 µg/mL (≈ 0.261 µM) | Fi AVG (average fitness) ([4]; AA 105 Ala (BlaC I105A)): -0.028 | Fi MEM AVG ([4]; AA 105 Ala, meropenem): -0.183 | Fi MEM 1 ([4]; AA 105 Ala, meropenem): -0.183 | Fi MEM AVG ([4]; AA 105 Arg, meropenem): -0.097 | Fi MEM 1 ([4]; AA 105 Arg, meropenem): 0.189 | Fi MEM 2 ([4]; AA 105 Arg, meropenem): 0.262 | Fi MEM 3 ([4]; AA 105 Arg, meropenem): -0.743 | Fi AVG (average fitness) ([4]; AA 105 Asn (BlaC I105N)): -0.021 | Fi MEM AVG ([4]; AA 105 Asn, meropenem): -0.526 | Fi MEM 1 ([4]; AA 105 Asn, meropenem): 0.793 | Fi MEM 2 ([4]; AA 105 Asn, meropenem): -1.824 | Fi MEM 3 ([4]; AA 105 Asn, meropenem): -0.547 | Fi AVG (average fitness) ([4]; AA 105 Asp (BlaC I105D)): -0.059 | Significance (Fi MEM AVG) ([4]; AA 105 Asp, meropenem): - | Fi MEM AVG ([4]; AA 105 Asp, meropenem): -1.181 | Fi MEM 1 ([4]; AA 105 Asp, meropenem): -1.339 | Fi MEM 2 ([4]; AA 105 Asp, meropenem): -1.644 | Fi MEM 3 ([4]; AA 105 Asp, meropenem): -0.561 | Fi MEM AVG ([4]; AA 105 Cys, meropenem): -0.623 | Fi MEM 1 ([4]; AA 105 Cys, meropenem): -1.368 | Fi MEM 2 ([4]; AA 105 Cys, meropenem): 1.109 | Fi MEM 3 ([4]; AA 105 Cys, meropenem): -1.611 | Fi AVG (average fitness) ([4]; AA 105 Gln (BlaC I105Q)): -0.020 | Fi MEM AVG ([4]; AA 105 Gln, meropenem): -1.909
